According to BindingDB's records for doi:10.1016/j.ejmech.2016.06.019 (Federal University of Minas Gerais, 2016):

Assay: Activation of NQO1 in human A549 cells assessed as decrease in cell survival incubated for 2 hrs measured after 7 days in presence of NQO1 inhibitor dicoumarol by Hoechst 33258 staining based assay
`CC1(C)OC2=C(C(=O)C(=O)c3ccccc32)C1Nc1ccc(F)c([N+](=O)[O-])c1` (centres undefined) showed an IC50 of over 3.2 µM.
`CC1(C)OC2=C(C(=O)C(=O)c3ccccc32)C1Nc1ccc([N+](=O)[O-])cc1` (centres undefined) gave an IC50 of over 3.2 µM.
Work on `CC1(C)OC2=C(C(=O)C(=O)c3ccccc32)C1Nc1cccc(-c2cn(C[Se]c3ccccc3)nn2)c1` (centres undefined) yielded an IC50 of over 3.2 µM.
Compound `CC1(C)OC2=C(C(=O)C(=O)c3ccccc32)C1Nc1cccc([N+](=O)[O-])c1` (centres undefined) has an IC50 of over 3.2 µM.
